# Data taken from PubChem BioAssay (NCI).
# Where “and” joins values, the source holds several entries; their conditions need not be identical. Equal values may be shown once.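 Step 1: Grow cells in 96-well plates. Step 2: Expose to compound for 48 hours at 5 concentrations. Step 3: Interpolate endpoints linearly; if unreached, use highest concentration. Abbreviation: GI50, concentration required for 50% inhibition of growth. TGI marks complete inhibition of growth.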
# Tests used:
# Experiment in all cases: NCI tumour cell line growth inhibition, 48 h
# SF-295 CNS = tested on: SF-295 CNS
# NCI-H460 lung = tested on: NCI-H460 lung
# A498 renal = tested on: A498 renal
# RPMI-8226 leukemia = tested on: RPMI-8226 leukemia
# LOX IMVI melanoma = tested on: LOX IMVI melanoma
# CCRF-CEM leukemia = tested on: CCRF-CEM leukemia
# UACC-62 melanoma = tested on: UACC-62 melanoma
# SF-268 CNS = tested on: SF-268 CNS
# BT-549 breast = tested on: BT-549 breast
# MDA-MB-435 = tested on: MDA-MB-435
SMILES,TGI (SF-295 CNS),TGI (NCI-H460 lung),TGI (A498 renal),TGI (RPMI-8226 leukemia),TGI (LOX IMVI melanoma),TGI (CCRF-CEM leukemia),TGI (UACC-62 melanoma),TGI (SF-268 CNS),TGI (BT-549 breast),GI50 (SF-295 CNS),GI50 (BT-549 breast),GI50 (NCI-H460 lung),GI50 (A498 renal),GI50 (LOX IMVI melanoma),GI50 (CCRF-CEM leukemia),GI50 (SF-268 CNS),TGI (MDA-MB-435),GI50 (MDA-MB-435),GI50 (RPMI-8226 leukemia),GI50 (UACC-62 melanoma)
COCCOCC(=O)N(CCn1ccc(NC(c2ccccc2)(c2ccccc2)c2ccccc2)nc1=O)CCn1cnc2nc(N)[nH]c(=O)c21,> 100 µM,> 100 µM,> 100 µM,> 100 µM,> 100 µM,> 100 µM,> 100 µM,> 100 µM,,,,,,,,,,,,
CC1=C(c2cc(C(=O)Nc3cccc(C(F)(F)F)c3)ncn2)Sc2ccccc2N1,> 100 µM,> 100 µM,> 100 µM,> 100 µM,,> 100 µM,> 100 µM,> 100 µM,,,,,,,,,,,,
CC(=O)OC1CC2C(C)(C)C(=O)C=CC2(C)C2CCC3(C)C(c4ccoc4)OC(=O)C4OC43C12C (configuration not stated),> 100 µM,16.1 µM,> 100 µM,8.02 µM,,,18.4 µM,> 100 µM,44.4 µM,,,,,,,,,,,
COc1ccc(/C(=N/NC(N)=O)C(c2ccc(OC)cc2)C2C(=O)Oc3ccccc32)cc1 (configuration not stated),> 100 µM,> 100 µM,,> 100 µM,> 100 µM,> 100 µM,> 100 µM,> 100 µM,,,,,,,,,,,,
O=C(O)C1(Cc2cccc(Nc3nccs3)n2)CCC(Oc2cccc(Cl)c2F)CC1 (configuration not stated),27.9 µM,19.6 µM,19.4 µM,,22.5 µM,> 55.1 µM,,> 100 µM,32.1 µM,1.31 µM,14600 nM,344 nM,3950 nM,7.62 µM,1230 nM,25.1 µM,,,,
CC(C)(C)C(=O)O[C@@H]1COC2C(O)COC21 (some centres not stated),> 100 µM,> 100 µM,,,> 100 µM,> 100 µM,> 100 µM,> 100 µM,,,,,,,,,,,,
COc1ccc(-c2cc(=O)c3c(O)cc(C)cc3o2)cc1OC,> 100 µM,> 100 µM,,> 100 µM,> 100 µM,> 100 µM,> 100 µM,> 100 µM,> 100 µM,,,,,,,,> 100 µM,,,
C/C(Cc1ccc(Cl)cc1)=C(/c1ccc(Cl)cc1)c1ccc(OCCN(C)C)cc1,10.3 µM,4.49 µM,,3.81 µM,7.18 µM,12.9 µM,9.75 µM,10.1 µM,10 µM,5.5 µM,4950 nM,1220 nM,,3.02 µM,4170 nM,5.01 µM,8.81 µM,4520 nM,1070 nM,5.19 µM
CCOC(=O)c1cc2c(n1Cc1ccccc1)-c1oncc1CC2,11.1 µM,11.4 µM,7.5 µM,30.2 µM,25.4 µM,> 100 µM,17.2 µM,79 µM,,2.89 µM,,3080 nM,1550 nM,5.5 µM,4920 nM,6.89 µM,4.37 µM,878 nM,4650 nM,3.45 µM
COc1cc(-c2cc(=O)c3cc(C)c(C)c(C(=O)O)c3o2)cc(OC)c1OC,> 100 µM,> 100 µM,> 100 µM,> 100 µM,> 100 µM,> 100 µM,> 100 µM,> 100 µM,,,,,,,,,,,,
Cc1ccc2[nH]c3c(ncc4[nH]c5ccccc5c43)c2c1,30.9 µM,30.6 µM,,44.3 µM,31.6 µM,35.9 µM,31.7 µM,32.4 µM,,,,,,,,,,,,
CCC(C(=O)[O-])C(=O)[O-].CCC(C(=O)[O-])C(=O)[O-].N.N.NCCCCCCN.[Pt+4].[Pt+4],50 µM,18.7 µM,18.1 µM,11.9 µM,20.6 µM,2.87 µM,14.6 µM,24 µM,,23.2 µM,,7990 nM,8850 nM,10.1 µM,1100 nM,11.2 µM,,,3660 nM,7.5 µM
Cc1cc(C)c(S(=O)(=O)ONC(=O)OC(C)(C)C)c(C)c1,> 100 µM,> 100 µM,> 100 µM,> 100 µM,> 100 µM,> 100 µM,> 100 µM,> 100 µM,,,,,,,,,,,,
O=C(NNC(=O)c1cc(/C=C/c2cccc([N+](=O)[O-])c2)[nH]c(=S)n1)Nc1ccc(Cl)cc1,> 100 µM,> 100 µM,> 100 µM,52.9 µM,37.3 µM,51.2 µM,> 100 µM,> 100 µM,,,,,,,,,,,,
Cc1nc(Nc2ccc([N+](=O)[O-])cc2)sc1C(/C=C/c1ccc(N(C)C)cc1)=N/NC(=O)c1ccccc1,> 100 µM,> 100 µM,,,> 100 µM,> 100 µM,28.5 µM,> 100 µM,,,,,,,,,,,,
c1ccc(COCC2OC3c4ccccc4COC3C2OCc2ccccc2)cc1 (configuration not stated),> 100 µM,> 100 µM,,> 100 µM,,,> 100 µM,,,,,,,,,,,,,
N#CC1(C=O)c2ccccc2C=CN1C(=O)c1ccccc1 (configuration not stated),,> 100 µM,> 100 µM,,,78.4 µM,> 100 µM,> 100 µM,,,,,,,,,,,,
O=C([O-])c1ccc(C(=O)[O-])cc1.O=C([O-])c1ccc(C(=O)[O-])cc1.[Mo+2].[Mo+2],> 100 µM,> 100 µM,,> 100 µM,> 100 µM,> 100 µM,> 100 µM,> 100 µM,,> 100 µM,,> 100000 nM,,> 100 µM,> 100000 nM,> 100 µM,,,> 100000 nM,> 100 µM
O=C1/C(=C/c2ccccc2)CN(C(=O)OCc2ccccc2)C/C1=C\c1ccccc1,26.7 µM,> 46.4 µM,> 31.6 µM,0.737 µM and 0.647 µM,2.52 µM and 8.88 µM,8.4 µM and 8.56 µM,20.2 µM,30.7 µM,33.2 µM,3.63 µM,,5470 nM,,1.21 µM,,,,,169 nM and 200 nM,
CCC1CCc2nc3sc(C(=O)Nc4ccccc4C)c(N)c3cc2C1 (configuration not stated),> 100 µM,> 100 µM,> 100 µM,> 100 µM,> 100 µM,> 100 µM,> 100 µM,> 100 µM,> 100 µM,0.354 µM,558 nM,627 nM,313 nM,0.775 µM,331 nM,0.706 µM,,,329 nM,0.329 µM
Cn1c2c(c3ccccc31)CCN(CCCCN1CCN(c3cccc(Cl)c3)CC1)C2=O,34 µM,28 µM,27.7 µM,27.4 µM,,> 100 µM,23.6 µM,49.9 µM,,,,,,,,,,,,
CC(=O)[O-].O=C([CH-]C(=O)c1ccccc1)c1ccccc1.O=C([CH-]C(=O)c1ccccc1)c1ccccc1.[Y+3],18.5 µM,18.4 µM,41.1 µM,33 µM,23.4 µM,,17.8 µM,31.3 µM,,3.29 µM,,2690 nM,16700 nM,4.95 µM,,4.27 µM,,,4470 nM,3.8 µM
COc1ccc(C(=O)c2cc3c(N)c(C(=O)Nc4cccc(Cl)c4C)sc3nc2C)cc1,> 25 µM,> 25 µM,0.558 µM,,> 25 µM,> 25 µM,> 25 µM,> 25 µM,> 25 µM,0.0833 µM,250 nM,91.7 nM,69.1 nM,0.154 µM,88.9 nM,0.419 µM,,,91.8 nM,0.12 µM
O=C1C2c3[nH]c4ccccc4c3[C@@H]3CCCCC3C2C(=O)N1c1ccccc1 (some centres not stated),43.2 µM,31.9 µM,71.9 µM,47.7 µM,29.8 µM,80.1 µM,38.5 µM,62.9 µM,,,,,,,,,,,,
O=C(CC(=O)C1CCOC1=O)C(=O)Nc1ccc(Cl)cc1Cl (configuration not stated),> 100 µM,> 100 µM,> 100 µM,> 100 µM,> 100 µM,> 100 µM,> 100 µM,> 100 µM,,,,,,,,,,,,
CCCCCCCCCCCCN(O)C(=O)c1ccccc1,> 100 µM,,88.3 µM,> 100 µM,> 100 µM,> 100 µM,> 100 µM,72.2 µM,,,,,,,,,,,,
CSc1ccc(/C=C/c2ccnc3ccccc23)cc1,27.5 µM,27.3 µM,29.2 µM,,25.4 µM,78.3 µM,,66 µM,,,,,,,,,12.5 µM,,,
CN(C)c1ccc(/C=N\N2C(=O)c3ccccc3C2=O)cc1,> 100 µM,> 100 µM,> 100 µM,> 100 µM,> 100 µM,> 100 µM,> 100 µM,> 100 µM,,,,,,,,,,,,
CCOC(=O)NC(=O)c1cn(CCN2CCN(C(=O)CCCCCCCCCCNc3ncnc4nc[nH]c34)CC2)c(=O)[nH]c1=O,> 100 µM,> 100 µM,,> 100 µM,> 100 µM,> 100 µM,> 100 µM,> 100 µM,,,,,,,,,,,,
COC12CC(=O)C(C(C)=O)=C(O)C1(C)c1c(OC(C)=O)c(C)c(O)c(C(C)=O)c1O2 (configuration not stated),> 100 µM,> 100 µM,78.1 µM,> 100 µM,> 100 µM,66.8 µM,23.4 µM,> 100 µM,,,,,,,,,,,,
